From patent US6559170B1, “Pyridine derivatives having fungicidal activity and processes to produce and use same” (Dow AgroScience LLC, priority 1999, dated 2003)

Key:
[1] = system: Puccinia recondita—PUCCRT; test: Brown rust of wheat, 1-day protectant whole plant test; assay type: in vivo; conditions: 100 ppm spray, 1-day protectant (1DP), wheat cultivar Monon
[2] = system: Phytophthora infestans—PHYTIN; assay type: in vivo; conditions: 100 ppm spray, 1-day protectant (1DP), tomatoes cultivar Rutgers
Erysiphe graminis—ERYSGT = test: Powdery Mildew of Wheat, 1-day protectant whole plant test; assay type: in vivo; conditions: 100 ppm spray, 1-day protectant (1DP), wheat cultivar Monon
[3] = system: Leptosphaeria nodorum—LEPTNO; test: Glume blotch of wheat, 1-day protectant whole plant test; assay type: in vivo; conditions: 100 ppm spray, 1-day protectant (1DP), wheat cultivar Monon

| Compound | PUCCRT percent control of the plant disease compared with untreated, inoculated plants [1] [%] | PHYTIN percent control of the plant disease compared with untreated, inoculated plants [2] [%] | ERYSGT percent control of the plant disease compared with untreated, inoculated plants (Erysiphe graminis—ERYSGT) [%] | LEPTNO percent control of the plant disease compared with untreated, inoculated plants [3] [%] | melting point [°C] |
| --- | --- | --- | --- | --- | --- |
| CNC(=O)C(=NOC)c1ccccc1COc1cccc(Sc2ccc3ccccc3c2)n1 [Compound 21] | 100 | 100 | 92 | 98 |  |
| CNC(=O)C(=NOC)c1ccccc1COc1nc(Sc2ccc(C(F)(F)F)cc2)c(Cl)cc1Cl [Compound 13] | 98 | 0 | 98 | 0 |  |
| CNC(=O)C(=NOC)c1ccccc1COc1cccc(Sc2ccc(Cl)cc2C)n1 [Compound 28] | 100 | 100 | 98 | 98 |  |
| CNC(=O)C(=NOC)c1ccccc1COc1cccc(Sc2cccc(C(F)(F)F)c2)n1 [Compound 22] | 98 | 100 | 92 | 78 |  |
| CNC(=O)C(=NOC)c1ccccc1COc1cccc(Sc2cccc(Cl)c2)n1 [Compound 23] | 100 | 100 | 98 | 78 |  |
| CNC(=O)C(=NOC)c1ccccc1COc1cccc(Sc2ccc(Br)cc2)n1 [Compound 19] | 100 | 100 | 98 | 98 |  |
| CNC(=O)C(=NOC)c1ccccc1COc1nc(Sc2ccccc2)c(F)cc1F [Compound 32] | 100 | 100 | 77 | 98 |  |
| CNC(=O)C(=NOC)c1ccccc1COc1cccc(Sc2ccc(F)cc2)n1 [Compound 24] | 100 | 100 | 85 | 98 |  |
| CNC(=O)C(=NOC)c1ccccc1COc1cccc(Sc2cccc(C)c2)n1 [Compound 16] | 100 | 100 | 92 | 89 |  |
| CNC(=O)C(=NOC)c1ccccc1COc1cccc(Sc2cccc3ccccc23)n1 [Compound 31] | 100 | 100 | 92 | 98 |  |
| CNC(=O)C(=NOC)c1ccccc1COc1cccc(Sc2c(C)cccc2C)n1 [Compound 26] | 98 | 100 | 69 | 89 |  |
| CNC(=O)C(=NOC)c1cccc(Cl)c1COc1ccc(Sc2ccc(Cl)cc2)cn1 [Compound 5, 2-Methoxyimino-N-methyl-{3-chloro-2-[5-(4-chlorophenyl)thio-2-pyridyloxy]methylphenyl}acetamide] | 100 | 99 | 85 | 98 | 116 to 118 |
| CCc1ccccc1Sc1cccc(OCc2ccccc2C(=NOC)C(=O)NC)n1 [Compound 33] | 100 | 100 | 92 | 98 |  |
| CNC(=O)C(=NOC)c1ccccc1COc1cccc(Sc2ccccc2C(F)(F)F)n1 [Compound 29] | 100 | 100 | 98 | 78 |  |
| CNC(=O)C(=NOC)c1ccccc1COc1cccc(Sc2ccccc2Cl)n1 [Compound 25] | 100 | 94 | 77 | 98 |  |
| CNC(=O)C(=NOC)c1cccc(Cl)c1COc1ccc(Sc2cccc(Cl)c2)cn1 [Compound 8, 2-Methoxyimino-N-methyl-{3-chloro-2-[5-(3-chlorophenyl)thio-2-pyridyloxy]methylphenyl}acetamide] | 98 | 100 | 98 | 98 |  |
| CNC(=O)C(=NOC)c1ccccc1COc1cccc(Sc2ccc(C)cc2)n1 [Compound 15] | 100 | 100 | 92 | 67 |  |
| CNC(=O)C(=NOC)c1ccccc1COc1nc(Sc2ccccc2)c(Cl)cc1Cl [Compound 10] | 100 | 96 | 99 | 98 |  |
| CNC(=O)C(=NOC)c1ccccc1COc1cccc(Sc2cccc(F)c2)n1 [Compound 30] | 100 | 100 | 98 | 98 |  |
| CNC(=O)C(=NOC)c1ccccc1COc1ccc(C(F)(F)F)c(Sc2ccccc2)n1 [Compound 12] | 100 | 94 | 98 | 78 |  |
| CNC(=O)C(=NOC)c1ccccc1COc1cccc(Sc2ccccc2F)n1 [Compound 27] | 100 | 100 | 77 | 98 |  |
| CNC(=O)C(=NOC)c1cccc(Cl)c1COc1ccc(Sc2cccc(C)c2)cn1 [Compound 7, 2-Methoxyimino-N-methyl-{3-chloro-2-[5-(3-methylphenyl)thio-2-pyridyloxy]methylphenyl}acetamide] | 100 | 100 | 98 | 98 |  |
| CNC(=O)C(=NOC)c1ccccc1COc1cccc(Sc2ccc(Cl)cc2)n1 [Compound 20] | 100 | 100 | 92 | 98 |  |
| CNC(=O)C(=NOC)c1ccccc1COc1nc(Sc2ccc(Cl)cc2)c(Cl)cc1Cl [Compound 11] | 89 | 44 | 69 | 0 |  |
| CNC(=O)C(=NOC)c1ccccc1COc1cccc(Sc2ccccc2)n1 [Compound 14] | 100 | 100 | 92 | 89 |  |
| CNC(=O)C(=NOC)c1ccccc1COc1cccc(Sc2ccccc2C)n1 [Compound 17] | 100 | 100 | 92 | 98 |  |
| CNC(=O)C(=NOC)c1cccc(F)c1COc1cccc(Sc2ccccc2)n1 [Compound 34] | 100 | 94 | 85 | 98 |  |
